# Experimental data: patent US9783490B2, “Antimicrobial compounds, their synthesis and applications thereof” (The Secretary of State for Health, priority 2012, dated 2017)
# Read-outs that look alike come from different tables or passages of the source.
# How the values were obtained:
# [1] = test system: S. aureus (MTCC 737); test: Minimum Inhibitory Concentration, micro-dilution broth; type: cell-based, Staphylococcus aureus; conditions: for Minimum Inhibitory Concentration S. aureus: Drug sensitive bacteria
# Protocol: (§1) Microorganisms and Culture Conditions: Bacterial strains, S. aureus (MTCC 737) and E. coli (MTCC 443) are purchased from MTCC (Chandigarh, India). MRSA (ATCC 33591), Pseudomonas aeruginosa (ATCC 4676), […]-lactamase producing and drug-resistant Klebsiella pneumonia (ATCC700603), Enterococcus faecium (ATCC 19634) and vancomycin resistant Enterococcus faecium (ATCC 51559) are obtained from ATCC (Rockville, Md., USA).
# (§2) E. coli is cultured in Luria Bertani broth (10 g of tryptone, 5 g of yeast extract, and 10 g of NaCl in 1000 mL of sterile distilled water (pH −7) while S. aureus, Pseudomonas aeruginosa (ATCC 4676) and MRSA are grown in Yeast-dextrose broth (1 g of beef extract, 2 g of yeast extract, 5 g of peptone and 5 g of NaCl in 1000 mL of sterile distilled water). For all Enterococcus faecium, Brain Heart Infusion broth (BHI) is used. For solid media 5% agar was used along with above mentioned composition. K. pneumonia was grown in nutrient media (3 g of beef extract and 5 g of peptone in 1000 mL of sterile distilled water). The bacterial samples were freeze dried and stored at −80° C. 5 μl of these stocks were added to 3 mL of the nutrient broth and the culture was grown for 6 h at 37° C. prior to the experiments.
# (§3) Antibacterial activity is reported as Minimum Inhibitory Concentration (MIC), i.e. the lowest concentration of the antimicrobial agent that will inhibit the growth of a microorganism after overnight incubation. Water-soluble ACK, NCK and BCK series of compounds are assayed in a modified micro-dilution broth format. Stock solutions are made by serially diluting the compounds using autoclaved Millipore water. Bacteria, to be tested are grown for about 6 hrs in the suitable media containing ˜10^9 cfu/mL (determined through dilution plate technique by spread plate method), which is then diluted to 10^5 cfu/mL using nutrient media. 50 μL of serially diluted compound is added to a 96 well plate containing 150 μL bacterial solutions. Two controls are made; one containing 150 μL of media and 50 μL of compound and the other containing 200 μL of bacterial solution. […] MIC value is determined by taking the average of triplicate O.D. values for each concentration and plotting it against concentration using Origin Pro 8.0 software. The data is then subjected to sigmoidal fitting. From the curve, MIC value is determined, as the point in the curve where the O.D. is similar to that of control having no bacteria. The MIC values and errors of independent experiments are reported as average and standard deviation of triplicates.
# [2] = test system: Enterococcus faecium (ATCC 19634); test: as above; type: cell-based; conditions: for Minimum Inhibitory Concentration E. faecium: Drug sensitive bacteria
# Protocol: as §1, §2, §3
# [3] = test system: Pseudomonas aeruginosa (ATCC 4676); test: as above; type: cell-based; conditions: for Minimum Inhibitory Concentration P. aeruginosa: Drug sensitive bacteria
# Protocol: as §1, §2, §3
# [4] = test system: drug-resistant Klebsiella pneumonia (ATCC700603); test: as above; type: cell-based; conditions: for Minimum Inhibitory Concentration K. pneumonia: Drug resistant bacteria
# Protocol: as §1, §2, §3
# [5] = test system: vancomycin resistant Enterococcus faecium (ATCC 51559); test: as above; type: cell-based; conditions: for Minimum Inhibitory Concentration VRE: Drug resistant bacteria
# Protocol: as §1, §2, §3
# [6] = test system: E. coli (MTCC 443); test: as above; type: cell-based, Escherichia coli; conditions: for Minimum Inhibitory Concentration E. coli: Drug sensitive bacteria
# Protocol: as §1, §2, §3
# [7] = test system: MRSA (ATCC 33591); test: as above; type: cell-based, Methicillin resistant S. aureus; conditions: for Minimum Inhibitory Concentration MRSA: Drug resistant bacteria
# Protocol: as §1, §2, §3
# [8] = test system: human RBCs; test: Haemolytic activity (HC50); type: cell-based
# Protocol: Erythrocytes are isolated from freshly drawn, heparinized human blood and re-suspended to 5 vol % in PBS (pH 7.4). In a 96-well microtiter plate, 150 μl of erythrocyte suspension is added to 50 μl of serially diluted compound. Two controls are made, one without compound and other with 50 μl of 1 vol % solution of Triton X-100. The plate is incubated for about 1 hr at a temperature of about 37° C. The plate is then centrifuged at 3,500 rpm for about 5 min, 100 μl of the supernatant from each well is transferred to a fresh microtiter plate, and absorbance at 540 nm is measured. Percentage of hemolysis is determined as (A−A0)/(Atotal−A0)×100, where A is the absorbance of the test well, A0 the absorbance of the negative controls (without compound), and A total the absorbance of 100% hemolysis wells (with Triton X-100), when absorbance is read at 540 nm.
# Toxicity studies of the compounds are carried out on freshly drawn human RBCs. Toxicity of the antimicrobial compounds of the present disclosure is defined by their HC50 values illustrated in Table 3, i.e. the concentration of compound at which 50% of the blood cells are lysed. Haemolytic studies conducted herein illustrates that the antimicrobial compounds provided by the instant disclosure are selective towards drug sensitive bacteria and drug resistant bacteria over human RBCs, thus establishing the non-toxicity of the present compounds.
# [9] = concentration at which 50% of the blood cells are lysed, human RBCs
SMILES,MIC value against S. aureus [1],Minimum Inhibitory Concentration S. aureus [1],MIC value against E. faecium [2],Minimum Inhibitory Concentration E. faecium [2],MIC value against P. aeruginosa [3],Minimum Inhibitory Concentration P. aeruginosa [3],MIC value against K. pneumonia [4],Minimum Inhibitory Concentration K. pneumonia [4],MIC value against vancomycin-resistant E. faecium [5],Minimum Inhibitory Concentration VRE [5],MIC value against E. coli [6],Minimum Inhibitory Concentration E. coli [6],MIC value against methicillin-resistant S. aureus [7],Minimum Inhibitory Concentration MRSA [7],"HC50 [8, 9]",HC50 [8]
"CCCCCCCCCCCCN(Cc1cccc2ccccc12)C(=O)[C@@H](N)CCCCN.O=C(O)C(F)(F)F [NCK-12, Lys-N-dodecyl-1-Aminomethylnaphthalene trifluoroacetate]",~3 µg/mL,3 µg/mL,~1.6 µg/mL,1.6 µg/mL,~3.2 µg/mL,3.2 µg/mL,~4 µg/mL,4 µg/mL,~3.4 µg/mL,3.4 µg/mL,~3.1 µg/mL,3.1 µg/mL,~2.7 µg/mL,2.7 µg/mL,56 µg/mL,–
"CCCCN(Cc1cccc2ccccc12)C(=O)C(N)CCCCN.O=C(O)C(F)(F)F (stereo not shown) [NCK-4, Lys-N-butyl-1-Aminomethylnaphthalene trifluoroacetate]",–,>100 µg/mL,–,>100 µg/mL,–,>100 µg/mL,–,>100 µg/mL,–,>100 µg/mL,–,>100 µg/mL,–,>100 µg/mL,>1000 µg/mL,–
"CCCCCCN(Cc1ccccc1)C(=O)[C@@H](N)CCCCN.O=C(O)C(F)(F)F [BCK-6, Lys-N-hexyl-1-Aminomethylbenzene trifluoroacetate]",–,>100 µg/mL,–,>100 µg/mL,–,>100 µg/mL,–,>100 µg/mL,–,–,–,>100 µg/mL,–,>100 µg/mL,–,>1000 µg/mL
"CCCCCCCCCCCCCCN(Cc1ccccc1)C(=O)C(N)CCCCN.O=C(O)C(F)(F)F (stereo not shown) [BCK-14, Lys-N-tetradecyl-1-Aminomethylbenzene trifluoroacetates]",~3.1 µg/mL,3.1 µg/mL,~2 µg/mL,2 µg/mL,~2.8 µg/mL,2.8 µg/mL,~4 µg/mL,4 µg/mL,~2.5 µg/mL,2.5 µg/mL,~3.1 µg/mL,3.1 µg/mL,~2.5 µg/mL,2.5 µg/mL,50 µg/mL,–
"CCCCCCN(Cc1c2ccccc2c(Cl)c2ccccc12)C(=O)C(N)CCCCN.O=C(O)C(F)(F)F (stereo not shown) [ACK-6, Lys-N-hexyl-10-Aminomethyl-9-chloroanthracene trifluoroacetate]",~2.4 µg/mL,2.4 µg/mL,~3.3 µg/mL,3.3 µg/mL,~1.6 µg/mL,1.6 µg/mL,~16 µg/mL,16 µg/mL,~5.2 µg/mL,5.2 µg/mL,~3.5 µg/mL,3.5 µg/mL,~2.8 µg/mL,2.8 µg/mL,82 µg/mL,–
"CCCCCCCCN(Cc1c2ccccc2cc2ccccc12)C(=O)[C@@H](N)CCCCN.O=C(O)C(F)(F)F [Compound 8c, Lys-N-octyl-9-Aminomethylanthracene trifluoroacetate]",–,2.2 µg/mL,–,–,–,–,–,–,–,–,–,–,–,3.6 µg/mL,–,42 µg/mL
"CCCCCCCCN(Cc1ccccc1)C(=O)C(N)CCCCN.O=C(O)C(F)(F)F (stereo not shown) [BCK-8, Lys-N-octyl-1-Aminomethylbenzene trifluoroacetates]",–,46 µg/mL,–,60 µg/mL,–,60 µg/mL,–,>100 µg/mL,–,>100 µg/mL,–,51 µg/mL,–,>100 µg/mL,325 µg/mL,–
"CCCCCCCCCCN(Cc1c2ccccc2c(Cl)c2ccccc12)C(=O)[C@@H](N)CCCCN.O=C(O)C(F)(F)F [ACK-10, Lys-N-decyl-10-Aminomethyl-9-chloroanthracene trifluoroacetate]",~7.1 µg/mL,7.1 µg/mL,~4.9 µg/mL,4.9 µg/mL,–,11 µg/mL,~7.6 µg/mL,7.6 µg/mL,~5.6 µg/mL,5.6 µg/mL,–,26 µg/mL,~4.6 µg/mL,4.6 µg/mL,71 µg/mL,–
"CCCCN(Cc1ccc(-c2ccccc2)cc1)C(=O)[C@@H](N)CCCCN [Compound 6a, Lys-N-Butyl-1-Aminomethylbiphenyl]",–,60 µg/mL,–,–,–,–,–,–,–,–,–,–,–,–,–,–
"CCCCCCN(Cc1ccc(-c2ccccc2)cc1)C(=O)[C@@H](N)CCCCN [Compound 6b, Lys-N-hexyl-1-Aminomethylbiphenyl]",–,7.5 µg/mL,–,–,–,–,–,–,–,–,–,–,–,–,–,–
"CCCCN(Cc1ccccc1)C(=O)[C@@H](N)CCCCN.O=C(O)C(F)(F)F [BCK-4, Lys-N-butyl-1-Aminomethylbenzene trifluoroacetate]",–,>100 µg/mL,–,>100 µg/mL,–,>100 µg/mL,–,>100 µg/mL,–,–,–,>100 µg/mL,–,>100 µg/mL,–,>1000 µg/mL
"CCCCCCCCN(Cc1ccc(-c2ccccc2)cc1)C(=O)C(N)CCCCN (stereo not shown) [Compound 6c, Lys-N-octyl-1-Aminomethylbiphenyl]",–,1.3 µg/mL,–,–,–,–,–,–,–,–,–,–,–,–,–,–
